From paper PMC6917776, “Discovery of a chemical probe for PRDM9” (Nature Communications, 2019)
“And” between values parts separate entries of the source, which are not always exact repeats. Identical values can stand only once. Like-named read-outs stand apart in the source and are kept apart here.

Experiments:
[1] = biological target: T1, PRDM9 (amino acids: 195–415) (Homo sapiens, UniProt Q9NQV7); assay: PRDM9 methyltransferase activity assay (3H-SAM scintillation proximity assay); format: biochemical; settings: for activity at 100 µM: 100 µM compound
T1 construct: PRDM9 (amino acids: 195–415)
T1 sequence (Q9NQV7 195-415): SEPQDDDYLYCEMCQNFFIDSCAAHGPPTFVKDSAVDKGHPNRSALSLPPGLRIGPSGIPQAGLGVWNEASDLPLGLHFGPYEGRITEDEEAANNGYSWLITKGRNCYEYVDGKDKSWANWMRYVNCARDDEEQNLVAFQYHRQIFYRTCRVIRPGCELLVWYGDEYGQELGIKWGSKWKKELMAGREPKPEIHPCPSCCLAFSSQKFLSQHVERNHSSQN
Procedure: Methyltransferase activity assays for PRDM9 (amino acids: 195–415) were performed by monitoring the incorporation of tritium-labeled methyl group from ^3H-SAM to H3 (1–25) peptide using scintillation proximity assay (SPA). The enzymatic reactions were performed at 23 °C with 30 min incubation in 20 mM Tris-HCl (pH 7.5), 5 mM DTT, 0.01% Triton X-100 and 1% DMSO containing 71 μM of SAM (5 μM of ^3H-SAM), 4 μM of biotinylated H3 (1–25) peptide and 5 nM of PRDM9. For PRDM7, reactions were performed at 23 °C with 90 min incubation in 20 mM BTP pH 9.0, 5 mM DTT, 0.01% Triton X-100 and 1% DMSO containing 900 μM of SAM (5 μM of ^3H-SAM), 4 μM of biotinylated H3 (1–25) peptide and 100 nM of enzyme. […] To stop the reactions, 10 μL of 7.5 M guanidine hydrochloride was added to 10 μL of reaction mixture, followed by 60 μL of buffer (20 mM Tris, pH 8.0), mixed, and transferred to a 384-well streptavidin coated Flash-plate. After mixing, the mixtures in Flash-plate were incubated for 2 h, and the CPM counts were measured using TopCount plate reader. All enzymatic reactions were performed in triplicate, and IC50 values were determined by fitting the data to Four Parameter Logistic equation using the GraphPad Prism software.

CAL851 = assay: CelltiterGlo viability cell assay; format: cell-based; settings: up to 30 μM; days 3 and 6; Prdm9 expressing line
Procedure: (§1) Supplementary Figure 13. […] Viability of
(§2) (a) Multiple Myeloma lines and (b) Breast Cancer cell lines following 3 or 6 days treatment with […]
(§3) manufacturer’s instructions as described in the Supplementary methods. Data are normalized to DMSO control. N=3 biological replicates, +/- SEM. Source data are provided as a Source Data […]
(§4) CelltiterGlo viability cell assay
(§5) Cells were seeded in 96 well plates at per-well densities of 10000 (MDA-MB436, ATCC-HTB130), 15000 (8226, kind gift from Rodger Tiedemann, Princess Margaret Cancer Centre), […]
(§6) kind gift from Rodger Tiedemann, Princess Margaret Cancer Centre) and 50000 (CAL851, kind gift from Mathieu Lupien, Princess Margaret Cancer Centre) and were treated at increasing concentrations of compounds ranging from 0.01 μM to 30 μM and assessed for proliferation using CelltiterGlo (Promega) following manufacturer’s instructions, as readout on days 3 and 6 as indicated. All cell lines were mycoplasma negative, as determined by MycoAlert™ Mycoplasma Detection Kit(Lonza). […]

RPMI-8226 = assay: CelltiterGlo viability cell assay; format: cell-based; settings: up to 30 μM; days 3 and 6; matched control line
Procedure: as §1, §2, §3, §4, §5, §6

SKMM2 = assay: CelltiterGlo viability cell assay; format: cell-based; settings: up to 30 μM; days 3 and 6; Prdm9 expressing line
Procedure: as §1, §2, §3, §4, §5, §6

COc1cc(OC)cc(-c2noc(N3CCN(C)C4(CCN(c5ccccc5)CC4)C3)n2)c1 [MRK-740-NC]
PRDM9 inhibition (in words) [1]: inactive control compound
PRDM9-Activity %, single experiments ([1]; 0.00610352 µM compound, 0.00610352 µM): 111.779% and 111.39%
activity at 0.00610352 µM ([1]; 0.00610352 µM compound, n=6 MRK-740, n=3 MRK-740-NC, read-out: PRDM9-Activity %, Average): 110%
activity at 0.00610352 µM ([1]; 0.00610352 µM compound, read-out: PRDM9-Activity %, single experiments): 108%
PRDM9-Activity %, single experiments ([1]; 0.012207 µM compound, 0.012207 µM): 116.346% and 113.283%
activity at 0.012207 µM ([1]; 0.012207 µM compound, n=6 MRK-740, n=3 MRK-740-NC, read-out: PRDM9-Activity %, Average): 115%
activity at 0.012207 µM ([1]; 0.012207 µM compound, read-out: PRDM9-Activity %, single experiments): 116%
PRDM9-Activity %, single experiments ([1]; 0.0244141 µM compound, 0.0244141 µM): 104.873% and 111.39%
activity at 0.0244141 µM ([1]; 0.0244141 µM compound, n=6 MRK-740, n=3 MRK-740-NC, read-out: PRDM9-Activity %, Average): 111%
activity at 0.0244141 µM ([1]; 0.0244141 µM compound, read-out: PRDM9-Activity %, single experiments): 116%
PRDM9-Activity %, single experiments ([1]; 0.0488281 µM compound, 0.0488281 µM): 125.258% and 118.268%
activity at 0.0488281 µM ([1]; 0.0488281 µM compound, n=6 MRK-740, n=3 MRK-740-NC, read-out: PRDM9-Activity %, Average): 122%
activity at 0.0488281 µM ([1]; 0.0488281 µM compound, read-out: PRDM9-Activity %, single experiments): 121%
PRDM9-Activity %, single experiments ([1]; 0.0976562 µM compound, 0.0976562 µM): 107.407% and 111.807%
activity at 0.0976562 µM ([1]; 0.0976562 µM compound, n=6 MRK-740, n=3 MRK-740-NC, read-out: PRDM9-Activity %, Average): 109%
activity at 0.0976562 µM ([1]; 0.0976562 µM compound, read-out: PRDM9-Activity %, single experiments): 108%
PRDM9-Activity %, single experiments ([1]; 0.195312 µM compound, 0.195312 µM): 118.212% and 116.151%
activity at 0.195312 µM ([1]; 0.195312 µM compound, n=6 MRK-740, n=3 MRK-740-NC, read-out: PRDM9-Activity %, Average): 119%
activity at 0.195312 µM ([1]; 0.195312 µM compound, read-out: PRDM9-Activity %, single experiments): 122%
PRDM9-Activity %, single experiments ([1]; 0.390625 µM compound, 0.390625 µM): 107.574% and 115.149%
activity at 0.390625 µM ([1]; 0.390625 µM compound, n=6 MRK-740, n=3 MRK-740-NC, read-out: PRDM9-Activity %, Average): 111%
activity at 0.390625 µM ([1]; 0.390625 µM compound, read-out: PRDM9-Activity %, single experiments): 112%
PRDM9-Activity %, single experiments ([1]; 0.78125 µM compound, 0.78125 µM): 116.708% and 121.749%
activity at 0.78125 µM ([1]; 0.78125 µM compound, n=6 MRK-740, n=3 MRK-740-NC, read-out: PRDM9-Activity %, Average): 119%
activity at 0.78125 µM ([1]; 0.78125 µM compound, read-out: PRDM9-Activity %, single experiments): 120%
PRDM9-Activity %, single experiments ([1]; 1.5625 µM compound, 1.5625 µM): 114.731% and 115.595%
activity at 1.5625 µM ([1]; 1.5625 µM compound, n=6 MRK-740, n=3 MRK-740-NC, read-out: PRDM9-Activity %, Average): 116%
activity at 1.5625 µM ([1]; 1.5625 µM compound, read-out: PRDM9-Activity %, single experiments): 117%
PRDM9-Activity %, single experiments ([1]; 3.125 µM compound, 3.125 µM): 124.004% and 125.898%
activity at 3.125 µM ([1]; 3.125 µM compound, n=6 MRK-740, n=3 MRK-740-NC, read-out: PRDM9-Activity %, Average): 123%
activity at 3.125 µM ([1]; 3.125 µM compound, read-out: PRDM9-Activity %, single experiments): 120%
PRDM9-Activity %, single experiments ([1]; 6.25 µM compound, 6.25 µM): 105.486% and 104.623%
activity at 6.25 µM ([1]; 6.25 µM compound, n=6 MRK-740, n=3 MRK-740-NC, read-out: PRDM9-Activity %, Average): 105%
activity at 6.25 µM ([1]; 6.25 µM compound, read-out: PRDM9-Activity %, single experiments): 105%
PRDM9-Activity %, single experiments ([1]; 12.5 µM compound, 12.5 µM): 112.476% and 115.762%
activity at 12.5 µM ([1]; 12.5 µM compound, n=6 MRK-740, n=3 MRK-740-NC, read-out: PRDM9-Activity %, Average): 114%
activity at 12.5 µM ([1]; 12.5 µM compound, read-out: PRDM9-Activity %, single experiments): 114%
PRDM9-Activity %, single experiments ([1]; 25 µM compound, 25 µM): 98.6355% and 87.9699%
activity at 25 µM ([1]; 25 µM compound, n=6 MRK-740, n=3 MRK-740-NC, read-out: PRDM9-Activity %, Average): 94.3%
activity at 25 µM ([1]; 25 µM compound, read-out: PRDM9-Activity %, single experiments): 96.2%
PRDM9-Activity %, single experiments ([1]; 50 µM compound, 50 µM): 103.397% and 100.975%
activity at 50 µM ([1]; 50 µM compound, n=6 MRK-740, n=3 MRK-740-NC, read-out: PRDM9-Activity %, Average): 102%
activity at 50 µM ([1]; 50 µM compound, read-out: PRDM9-Activity %, single experiments): 101%
activity at 100 µM ([1]; n=3, read-out: PRDM9-Activity %, Average): 80.5%
activity at 100 µM ([1]; read-out: PRDM9-Activity %, single experiments): 82.7%
Effect on proliferation (in words) (CAL851): did not have any significant effect
Effect on proliferation (in words) (RPMI-8226): did not have any significant effect
Effect on proliferation (in words) (SKMM2): did not have any significant effect
